Laboratory results published in patent US20110059869A1, “Method for Increasing Enzymatic Reactivity” (RIKEN, priority 2008, published 2011).

Key:
Assay type in all cases: biochemical
DNA polymerase [1] = experiment: Solexa sequencing system, cluster amplification reaction on DNA-immobilized chip; details: for num of CAGE tag / num of sequence read: trehalose 0.6 M in cluster amplification
Procedure: The Solexa sequencing system incorporates the steps of adsorbing, immobilizing, and amplifying a DNA template on a flat chip. An examination was conducted to see how the sequence analysis level would change due to the addition of trehalose in the template amplification reaction of the Solexa sequencing system.
In the process of the Solexa sequencing system, attention was focused on the cluster amplification reaction conducted on a DNA-immobilized chip. In this reaction, DNA immobilized on the chip was amplified with DNA polymerase to obtain identical fragments referred to as a cluster (Scheme 9). Amplification was conducted by adding trehalose to the reaction solution to a final concentration of 0.6 M, and a comparison was made with the results obtained when no trehalose was added (FIG. 10). The sample employed here was a 27 by DNA fragment that had been prepared by the CAGE method (obtained by cleaving just 27 by off of the 5′ end of cDNA).
In the same manner as in 10 above, trehalose was added to a final concentration of 0.3 M to a reaction solution and amplification was conducted in a Solexa sequencing system. The results were compared to those obtained when no trehalose was added. The samples employed, prepared by the CAGE method (obtained by cleaving just 27 by off the 5′ end of the cDNA), were different 27 by DNA fragments than those in 10 above.

DNA polymerase [2] = experiment: 454 sequencing system, emulsion PCR on beads
Procedure: In the 454 sequencing system (Scheme 10), a DNA template was adsorbed onto spherical beads, immobilized, and subjected to enveloped amplification in a water-in-oil emulsion (emulsion PCR). Accordingly, the change in the sequencing analysis level when trehalose was added in emulsion PCR was examined.
In emulsion PCR, DNA is bonded by complementarily interaction with oligoprimer immobilized on beads and enveloped in a water-in-oil emulsion to form microreactors each comprised of a single bead and a single DNA fragment. An amplification reaction based on the DNA polymerase results in the amplification of each DNA fragment into several million copies per bead. Trehalose was added to a final concentration of 0.6 M to the reaction solution and the amplification reaction was conducted to examine the effect on the sequence analysis results (Scheme 11).
The samples employed were DNA fragments that had been obtained by PCR amplification of cDNA obtained by reverse transcription of short RNA (FIG. 11). The results obtained by this reaction are shown in FIGS. 12, 13, and 14, as well as in Table 2.
In the 454 sequencing system described in 11 above, trehalose was added to a final concentration of […] to the reaction solution, an amplification reaction was conducted, and the effect on the level of sequencing was examined.

[3] = system: sequencing enzyme reaction solution of a Genome Sequencer FLX system; experiment: Sequencing reaction of the 454 sequencing system (Genome Sequencer FLX); details: trehalose 0.15 M and 0.3 M in sequencing reaction vs none
Procedure: In the 454 sequencing system described in 11 above, trehalose was added to the reaction solution to a final concentration of 0.3 M, the sequencing reaction was conducted, and the effect on the sequencing level was observed.
D(+)-trehalose was added to the sequencing enzyme reaction solution of a Genome Sequencer FLX system and the effects were measured. Two experiments were conducted with final D(+)-trehalose concentrations of 0.15 M and 0.3 M. The ratio of the read length to the decodable sample was employed for comparison.
The D(+)-trehalose employed was D(+)-trehalose dihydrate (201-02253 reagent grade) (Wako). A GS LR 25 Sequencing Kit (502906) was employed for sequencing with the Genome Sequencer FLX system. The samples employed here were a PolyA minus full length cDNA library prepared in-house and human genome prepared according to the manufacturer's protocol.
The D(+)-trehalose dihydrate (201-02253 reagent grade) (Wako) was added in the following proportion to the Buffer CB among the reagents contained in the GS LR 25 Sequencing Kit (502906).
The mixture was stirred with a magnetic stirrer. Once dissolution had been visually confirmed, the mixed solution was passed through a filter (filter pore system 0.22 micrometer). Following filtration, precisely the required 2× 1000 mL quantities were collected from the mixed solution. […]

[4] = 0.3 M trehalose in cluster amplification vs none
[5] = 0.3 M trehalose in emulsion PCR vs none
[6] = 0.6 M trehalose in emulsion PCR
[7] = trehalose 0.6 M in emulsion PCR, Region 2

OC[C@H]1O[C@H](O[C@H]2O[C@H](CO)[C@@H](O)[C@H](O)[C@H]2O)[C@H](O)[C@@H](O)[C@@H]1O [trehalose, D(+)-trehalose]
fluorescence intensity of each base in the CAGE samples (DNA polymerase [1]; [4]): higher level of fluorescence intensity
sequence level (DNA polymerase [1]; [4]): increased
length of the sequence that was determined (DNA polymerase [1]; 0.6 M trehalose vs none): increased
regions prepared by the CAGE method (CAGE tag) among DNA fragments analyzed (DNA polymerase [1]; 0.6 M trehalose vs none): more regions prepared by the CAGE method (the CAGE tag) were contained
fluorescence intensity of each base (DNA polymerase [1]; 0.6 M trehalose, data not shown): strongly displayed
num of CAGE tag (DNA polymerase [1]; region s1): 196840
num of sequence read (DNA polymerase [1]; region s1): 252820
num of CAGE tag (DNA polymerase [1]; region s2): 421412
num of sequence read (DNA polymerase [1]; region s2): 523387
num of CAGE tag (DNA polymerase [1]; region s3): 540268
num of sequence read (DNA polymerase [1]; region s3): 648786
num of CAGE tag (DNA polymerase [1]; region s5): 317440
num of sequence read (DNA polymerase [1]; region s5): 392534
num of CAGE tag (DNA polymerase [1]; region s6): 627739
num of sequence read (DNA polymerase [1]; region s6): 728614
num of CAGE tag (DNA polymerase [1]; region s7): 798438
num of sequence read (DNA polymerase [1]; region s7): 904101
num of CAGE tag (DNA polymerase [1]; total of regions): 2902137
num of sequence read (DNA polymerase [1]; total of regions): 3450242
long fragments (sequence length) (DNA polymerase [2]; [5]): increase in long fragments
number of sequences (DNA polymerase [2]; [5]): increased the number of sequences
short fragments (sequence length) (DNA polymerase [2]; [5]): reduction in short fragments
DNA amplification wells (DNA polymerase [2]; 0.6 M trehalose (+) compared to trehalose (−)): increasing the DNA amplification wells
number of sequences and size of the regions that were decoded (DNA polymerase [2]; 0.6 M trehalose (+) relative to trehalose (−)): increasing the number of sequences and the size of the regions that were decoded
number of sequences read in sample DNA, increase relative to no trehalose (DNA polymerase [2]; [6]): about 1.6 fold
target regions contained in DNA fragments (tags) analyzed (DNA polymerase [2]; [6]): more target regions were contained
Keypass Wells (DNA polymerase [2]; [7]): 341,546
Passed Filter Wells (DNA polymerase [2]; [7]): 207,398
Raw Wells (DNA polymerase [2]; [7]): 364,898
number of sequences [3]: increased the number of sequences
